Reference: PMC7867136, “Anti-Infective and Anti-Inflammatory Mode of Action of Peptide 19-2.5” (International Journal of Molecular Sciences, 2021)

Test system: Salmonella minnesota strain R60 bacteria on human mononuclear cells
Experiment: TNFα secretion by human mononuclear cells exposed to whole bacteria
Format: cell-based
Conditions: 10^6/ml Salmonella minnesota R60; antibiotics alone, or Pep19-2.5 added to ceftriaxone or ciprofloxacin; Figure 5
Experimental: Mononuclear cells (MNC) were isolated from heparinized blood samples obtained from healthy donors as described previously [1, 24]. […] For stimulation, 200 μL MNC (1 × 10^6 cells) in RPMI medium supplemented with PS/Glu2% (penicillin/streptomycin/glutamine, Biochrome, Berlin, Germany) plus AB serum (4%) was transferred into the wells of a 96-well culture plate.
The formulations to be tested for stimulation were preincubated for 30 min at 37 °C and added to the cultures at 20 μL per well. The cultures were incubated for 4 h at 37 °C with 5% CO2. Supernatants were collected after centrifugation of the culture plates for 10 min at 400× g and stored at 20 °C until immunological determination of tumor necrosis factor alpha (TNF-α), carried out with a sandwich enzyme-linked immunosorbent assay (ELISA) using a monoclonal antibody against TNF (BD Biosciences, Heidelberg, Germany) as described previously in detail [1]. In the case of the stimulation by the TNFα receptor, interleukin-8 in the supernatants was determined immunologically.

Compound: CO/N=C(\C(=O)N[C@@H]1C(=O)N2C(C(=O)O)=C(CSc3nc(=O)c(=O)[nH]n3C)CS[C@H]12)c1csc(N)n1 [ceftriaxone]
- Influence on TNFα release from hMNC exposed to whole bacteria: only marginally influence the cytokine release
